Data taken from patent US20050227302A1, “Induction of apoptosis via ARTS-IAP complexes” (priority 2004, published 2005).

Assays:
XIAP [1] = assay: Co-immunoprecipitation of ARTS-XIAP complexes in NRP154 cells; type: cell-based, rat
Description: (§1) Protein extracts were prepared with lysis buffer (150 mM NaCl, 50 mM Tris-HCl (pH 8), 1% NP-40, 0.5% deoxycholate acid) with protease inhibitors. Lysates containing equal amounts of total protein were pre-cleared overnight with 1 mg mouse IgG (Sigma) coupled with protein A/G-Sepharose mix (Amersham Biosciences) and the beads centrifuged. Supernatants were immuno-precipitated using 5 μl of anti-ARTS antibody for 4 h, anti-XIAP antibody, rabbit anti-myc antibody, or mouse IgG (negative control). Protein A/G Sepharose beads were added for 1 hour and washed four times with PBS. Antibodies against XIAP (as above), Myc (Santa Cruz), or anti-ARTS (NT) antibodies directed against the common N′ terminus of ARTS and H5 (ProSci Incorporated) were used for Western blot.

COS-7 cells = assay: Immunofluorescence of ARTS and XIAP localization in COS-7 cells; type: cell-based, African Green Monkey; settings: for ARTS and XIAP co-localization: COS-7 cells transfected with AU5-ARTS and pcDNA3-Myc-XIAP, 100 mM etoposide
Description: Cells were fixed with 4% paraformaldehyde in PBS for 20 min at room temperature, washed with PBS, permeabilized with 0.5% Triton-X in PBS for 5 min, and incubated with primary antibodies for 2 hours at room temperature (rabbit polyclonal anti-ARTS (1:20,000; Sigma), monoclonal anti-ARTS, and/or monoclonal anti-XIAP (1:500; used in subsequent Examples). Cells were washed three times with PBS/0.1% Triton-X and incubated with FITC conjugated anti-mouse and Rhodamin^TX-conjugated anti-rabbit secondary antibodies (Jackson). Images were analyzed using a confocal laser microscope (Zeiss LSM 510). Mitochondria were visualized with MitoTracker® Red CMXRos (Molecular Probes/Invitrogen).
For caspase inhibition, we added […] of BOC-Asp(Ome)CH2F (Enzyme Systems Products) one hour prior to addition of the apoptotic agents.

XIAP [2] = assay: Co-immunoprecipitation of ARTS-XIAP complexes in COS-7 cells; type: cell-based, African Green Monkey
Description: as §1

ARTS = assay: Cell fractionation, ARTS levels in sub-cellular fractions; type: cell-based; settings: treated with staurosporine (STS) for 1 hour
Description: Cells were homogenized in 20 mM HEPES-KOH, pH 7.5, 10 mM KCl, 1.5 mM MgCl2, 1 mM sodium EDTA, 1 mM sodium EGTA, and 1 mM dithiothreitol in the presence of 250 mM sucrose and protease inhibitors. Homogenates were centrifuged at 500×g for 5 min at 4° C., and the supernatant was centrifuged at 10,000×g for 20 min to obtain mitochondria. The pellet was washed and solubilized in TNC buffer (10 mM Tris acetate, pH 8.0, 0.5% Nonidet P-40 (NP-40), 5 mM CaCl2) with protease inhibitors. Protein concentration was determined with a Micro-BCA kit (Pierce).

XIAP [3] = target: T1, XIAP (Homo sapiens, UniProt P98170); assay: GST pull-down assay of ARTS and XIAP; type: binding; settings: lysates of COS-7 cells transfected with AU5-tagged construct; Western blot anti-AU5
T1 construct: made in house; host or cells: bacteria (pGEX-XIAP plasmid obtained from Dr. Colin S. Duckett)
Excerpt: For the glutathione-S-transferase (GST)-pull down assays, ARTS was subcloned into the pGEX 4T™ (Pharmacia Biotech) construct; GST-ARTS fusion protein was generated by Polymerase Chain Reaction (PCR) using the following primers: • BamHI-5′-[…]-3′ (SEQ ID No: 4) and • EcoRI-5′ […]-3′ (SEQ ID No: 5) and cloned into BamHI and EcoRI sites in pGEX 4T. Preparation of Beads
For in vitro binding studies, recombinant GST-ARTS or GST-XIAP fusion proteins were purified from bacteria. After sonication, 0.1% Triton X-100 and protease inhibitors (Mini-Complete™, Roche) were added to the bacterial extract followed by 10,000 rotations per minute (RPM) centrifugation. Supernatants of bacterial extracts were collected and incubated in the presence of glutathione-Sepharose 4B beads (Amersham Biosciences) for 30 minute at 4° C. The beads were washed three times.
Cells were lysed in RIPA buffer (150 mM NaCl, 50 mM Tris-HCl (pH 8), 1% NP-40, 0.1% SDS, 0.5% deoxycholate acid containing protease inhibitors (mini Complete, Roche)). Samples were divided into two tubes; one was rotated for 4 h at 4° C. with GST-ARTS fusion protein coupled with the glutathione beads, or GST-XIAP fusion protein. The second tube was incubated with glutathione beads alone (negative control). Samples were centrifuged at 4000-RPM at 4° C. for 4 minute and washed five times in lysis buffer, then boiled in sample buffer for 5 minutes to elute bound proteins Proteins were separated on 12.5% SDS-PAGE gel followed by Western blot analysis using monoclonal anti-ARTS antibody (Sigma), monoclonal anti-XIAP antibody (BD Transduction Laboratories) or monoclonal anti-myc antibody (Clontech).

[4] = Larisch S et al, Nat Cell Biol 2: 915-921, 2000; cited from earlier work

T1 sequence (P98170 whole entry): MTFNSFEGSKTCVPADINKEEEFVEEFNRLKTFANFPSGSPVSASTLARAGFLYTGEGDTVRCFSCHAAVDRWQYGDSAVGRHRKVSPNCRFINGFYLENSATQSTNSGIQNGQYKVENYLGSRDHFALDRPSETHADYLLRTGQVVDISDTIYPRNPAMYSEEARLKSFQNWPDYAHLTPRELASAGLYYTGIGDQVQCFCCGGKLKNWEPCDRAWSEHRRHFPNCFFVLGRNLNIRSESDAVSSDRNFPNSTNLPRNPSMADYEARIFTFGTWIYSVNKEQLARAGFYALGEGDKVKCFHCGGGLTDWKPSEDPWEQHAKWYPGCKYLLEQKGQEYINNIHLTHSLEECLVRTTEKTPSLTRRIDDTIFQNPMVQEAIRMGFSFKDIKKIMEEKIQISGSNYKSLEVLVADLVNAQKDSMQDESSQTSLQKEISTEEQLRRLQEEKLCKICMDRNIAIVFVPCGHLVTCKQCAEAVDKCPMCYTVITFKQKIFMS

## COc1cc([C@@H]2c3cc4c(cc3[C@@H](O[C@@H]3O[C@@H]5CO[C@@H](C)O[C@H]5[C@H](O)[C@H]3O)[C@H]3COC(=O)[C@H]23)OCO4)cc(OC)c1O [etoposide]
XIAP [1]; 6 hours of etoposide treatment (100 μM)
  ARTS-XIAP complexes: increased further
XIAP [1]; three hours of etoposide treatment (100 μM)
  ARTS-XIAP complexes: a large number of ARTS-XIAP complexes were detected
COS-7 cells; ARTS-transfected COS-7 cells treated with etoposide, absence of caspase inhibitors
  ARTS localization: accumulated ARTS in the nucleus
COS-7 cells; 2 hours
  ARTS and XIAP co-localization: extensive overlap between ARTS and XIAP staining
COS-7 cells; 16 hours
  ARTS and XIAP co-localization: most of the staining for both proteins was confined to the nucleus

## CN[C@@H]1C[C@H]2O[C@@](C)([C@@H]1OC)n1c3ccccc3c3c4c(c5c6ccccc6n2c5c31)C(=O)NC4 [staurosporine, reference compound]
XIAP [2]; COS-7 cells, endogenous proteins, three hours of incubation with staurosporine
  ARTS-XIAP binding: significant increase in ARTS-XIAP binding
ARTS
  ARTS levels in the cytosol: strongly increased

B1: H5: H5 septin protein derived by differential splicing from the same locus as ARTS; considerably larger protein (protein)
chain: MDRSLGWQGNSVPEDRTEAGIKRFLEDTTDDGELSKFVKDFSGNASCHPPEAKTWASRPQVPEPRPQAPDLYDDDLEFRPPSRPQSSDNQQYFCAPAPLSPSARPRSPWGKLDPYDSSEDDKEYVGFATLPNQVHRKSVKKGFDFTLMVAGESGLGKSTLVNSLFLTDLYRDRKLLGAEERIMQTVEITKHAVDIEEKGVRLRLTIVDTPGFGDAVNNTECWKPVAEYIDQQFEQYFRDESGLNRKNIQDNRVHCCLYFISPFGHGLRPLDVEFMKALHQRVNIVPILAKADTLTPPEVDHKKRKIREEIEHFGIKIYQFPDCDSDEDEDFKLQDQALKESIPFAVIGSNTVVEARGRRVRGRLYPWGIVEVENPGHCDFVKLRTMLVRTHMQDLKDVTRETHYENYRAQCIQSMTRLVVKERNRNKLTRESGTDFPIPAVPPGTDPETEKLIREKDEELRRMQEMLHKIQKQMKENY
modifications: left off: small tags and cut ends
XIAP [3]
  binding to GST-XIAP: Neither ARTSΔC nor H5 were able to bind to XIAP
XIAP [2]; COS-7 cells co-transfected with pcDNA-mycXIAP and AU5-tagged construct
  binding to XIAP in co-IP: Neither of these mutants bound to XIAP
[4]
  pro-apoptotic activity: lacks pro-apoptotic activity
